# Legend:
# [1] = molecular target: T1, Palmitoleoyl-protein carboxylesterase NOTUM (Homo sapiens, UniProt Q6P988); experiment: Inhibition of human notum pectinacetylesterase expressed in 293F cells after 30 mins by TCF/LEF cell sensor assay; assay type: cell-based
# T1 sequence (Q6P988 whole entry): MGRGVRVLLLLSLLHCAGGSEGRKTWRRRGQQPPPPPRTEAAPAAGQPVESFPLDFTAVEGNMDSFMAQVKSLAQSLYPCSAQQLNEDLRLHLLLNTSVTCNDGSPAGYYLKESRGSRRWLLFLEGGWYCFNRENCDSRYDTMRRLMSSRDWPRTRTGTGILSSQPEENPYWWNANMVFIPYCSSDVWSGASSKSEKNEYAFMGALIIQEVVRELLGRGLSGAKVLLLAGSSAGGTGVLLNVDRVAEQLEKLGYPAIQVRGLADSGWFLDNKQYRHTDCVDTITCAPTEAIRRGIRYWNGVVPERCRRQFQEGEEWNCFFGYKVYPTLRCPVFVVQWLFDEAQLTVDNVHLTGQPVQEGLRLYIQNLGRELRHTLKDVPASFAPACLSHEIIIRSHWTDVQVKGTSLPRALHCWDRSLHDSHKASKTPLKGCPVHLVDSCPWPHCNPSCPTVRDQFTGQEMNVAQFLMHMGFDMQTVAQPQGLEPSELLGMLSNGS
# [2] = Inhibition of human/mouse notum pectinacetylesterase using OPTS as substrate by fluorimetric assay
# [3] = molecular target: T2, Palmitoleoyl-protein carboxylesterase NOTUM (Mus musculus, UniProt Q8R116); experiment: Inhibition of mouse notum pectinacetylesterase expressed in 293F cells after 30 mins by TCF/LEF cell sensor assay; assay type: cell-based
# T2 sequence (Q8R116 whole entry): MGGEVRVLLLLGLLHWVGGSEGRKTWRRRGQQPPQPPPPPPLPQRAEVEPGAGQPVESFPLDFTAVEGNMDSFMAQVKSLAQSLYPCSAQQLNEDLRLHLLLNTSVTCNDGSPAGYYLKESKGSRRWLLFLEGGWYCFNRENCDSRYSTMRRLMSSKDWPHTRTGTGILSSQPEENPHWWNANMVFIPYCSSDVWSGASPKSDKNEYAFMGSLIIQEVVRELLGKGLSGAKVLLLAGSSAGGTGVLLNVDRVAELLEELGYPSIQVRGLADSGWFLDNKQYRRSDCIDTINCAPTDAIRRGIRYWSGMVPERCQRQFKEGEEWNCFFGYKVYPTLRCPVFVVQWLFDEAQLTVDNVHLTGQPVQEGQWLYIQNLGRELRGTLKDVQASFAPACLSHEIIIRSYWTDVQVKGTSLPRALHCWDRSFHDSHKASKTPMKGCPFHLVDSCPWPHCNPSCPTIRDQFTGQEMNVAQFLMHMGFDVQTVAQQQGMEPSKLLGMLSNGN
# [4] = Clearance in mouse at 10 mg/kg, po; assay type: ADME, organism-based; settings: in vivo
# [5] = Cmax in mouse at 10 mg/kg, po; assay type: ADME, organism-based; parameters: dose 10 mg/kg, route oral; settings: in vivo
# Mus musculus = experiment: Volume of distribution at steady state in mouse at 10 mg/kg, po; assay type: ADME, organism-based; settings: in vivo
# [6] = AUC in mouse at 10 mg/kg, po; assay type: ADME, organism-based; settings: in vivo
# [7] = Oral bioavailability in mouse at 10 mg/kg; assay type: ADME, organism-based; settings: in vivo
EC50 [1],IC50 [2],EC50 [3],Compound,further results
857 nM,2 nM,,Cc1sc2ncnc(SCC(N)=O)c2c1C,
250 nM,,1010 nM,O=C(O)CSc1ncnc2sc(C3CC3)c(Cl)c12,
88 nM,,342 nM,CCCc1sc2ncnc(SCC(=O)O)c2c1Cl,
393 nM,,1440 nM,CCc1sc2ncnc(SCC(=O)O)c2c1Cl,
417 nM,,1360 nM,Cc1c(Br)sc2c(SCC(=O)O)ncnc12,
1960 nM,,5510 nM,Cc1sc2c(SCC(=O)O)ncnc2c1Cl,
115 nM,,408 nM,Cc1sc2c(SCC(=O)O)ncnc2c1C1CC1,
,92 nM,,Cc1csc2ncnc(SCC(=O)O)c12,
445 nM,2 nM,,COC(=O)CSc1ncnc2sc(C)c(C)c12,
12 nM,,43 nM,O=C(O)CSc1ncnc2c(C3CC3)c(C(F)(F)F)sc12,
556 nM,2 nM,,Cc1sc2ncnc(SCC(=O)NO)c2c1C,
,15000 nM,,O=C(O)CSc1ncnc2[nH]ccc12,
144 nM,,485 nM,Cc1c(Br)sc2ncnc(SCC(=O)O)c12,
168 nM,2 nM,,Cc1sc2ncnc(SCC(=O)c3c[nH]c(CNS(=O)(=O)C4CC4)c3)c2c1C,
477 nM,,828 nM,CC(C)c1sc2ncnc(SCC(=O)O)c2c1Cl,
,2800 nM,,O=C(O)CSc1ncnc2sccc12,
,15000 nM,,O=C(O)CSc1ncnc2[nH]ncc12,
435 nM,,1440 nM,Cc1c(Cl)sc2c(SCC(=O)O)ncnc12,
,2 nM,1020 nM,Cc1sc2ncnc(SCC(=O)O)c2c1C,

EC50 [1],IC50 [2],EC50 [3],Compound,further results
400 nM,2 nM,,Cc1sc2ncnc(SCC(=O)NC#N)c2c1C,
211 nM,6 nM,,Cc1sc2ncnc(SCC(=O)c3ccc(CNC(=O)C(C)C)o3)c2c1C,
,193 nM,,Cc1csc2c(SCC(=O)O)ncnc12,
,1200 nM,,O=C(O)CSc1ncnc2ccccc12,
280 nM,10 nM,,Cc1sc2ncnc(SCC(=O)c3c[nH]c(C(=O)N4CCCC4)c3)c2c1C,
881 nM,,4470 nM,Cc1sc2c(SCC(=O)O)ncnc2c1C,
,152 nM,,Cc1cc2c(SCC(=O)O)ncnc2s1,
,620 nM,,O=C(O)CSc1ncnc2sc3c(c12)CCCC3,
,15000 nM,,O=C(O)CSc1ncnc2scnc12,
249 nM,5 nM,,Cc1sc2ncnc(SCC(=O)c3ccc(CNC(=O)C4CC4)o3)c2c1C,
835 nM,,2640 nM,CCc1sc2ncnc(SCC(=O)O)c2c1C,
107 nM,,409 nM,Cc1sc2ncnc(SCC(=O)O)c2c1Cl,CL/F [4]: 1.22 mL/min/kg; Cmax [5]: 157 µM; Vdss (Mus musculus): 0.16 L/kg; AUC [6]: 515 µM·h; bioavailability [7]: 95%
,,55 nM,O=C(O)CSc1ncnc2c(C3CC3)c(Cl)sc12,Vdss (Mus musculus): 0.13 L/kg
208 nM,,375 nM,Cc1sc2ncnc(SCC(=O)O)c2c1Br,
21900 nM,,65400 nM,CCc1c(C)sc2ncnc(SCC(=O)O)c12,
885 nM,,2560 nM,Cc1c(Cl)sc2ncnc(SCC(=O)O)c12,
1460 nM,11 nM,,Cc1sc2ncnc(SCC(=O)NS(C)(=O)=O)c2c1C,
789 nM,27 nM,,CNC(=O)CSc1ncnc2sc(C)c(C)c12,
